These results are taken from patent US9999619B2, “Piperidin-4-yl azetidine derivatives as JAK1 inhibitors” (Incyte Corporation, priority 2010, dated 2018).

Some results are limits rather than exact numbers.

What all share (assay type): biochemical
Test [1] addresses human JAK1 (a.a. 837-1142) (Homo sapiens, UniProt P23458). Put plainly: In vitro JAK kinase assay (HTRF, phosphorylation of a biotinylated peptide), JAK1. As to conditions: measured at 1 mM ATP. A digest of the protocol: (§1)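 Phosphorylation of a biotinylated peptide by purified His-tagged JAK catalytic domains (insect-cell baculovirus expression) ran 1 hr at room temperature. After stopping with EDTA, Eu-Py20 and SA-APC were bound for 40 minutes and HTRF measured.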

Test [2] addresses human JAK1 (a.a. 837-1142). The description is as above. As to conditions: ratio of JAK2 IC50 to JAK1 IC50, measured at 1 mM ATP. The method, boiled down:
as §1

The target of test [3] is Jak2 (a.a. 828-1132) (Homo sapiens (Human), UniProt O60674). Briefly: In vitro JAK kinase assay (HTRF, phosphorylation of a biotinylated peptide), JAK2. As to conditions: measured at 1 mM ATP. A digest of the protocol:
as §1

Jak2 (a.a. 828-1132), sequence (O60674 828-1132): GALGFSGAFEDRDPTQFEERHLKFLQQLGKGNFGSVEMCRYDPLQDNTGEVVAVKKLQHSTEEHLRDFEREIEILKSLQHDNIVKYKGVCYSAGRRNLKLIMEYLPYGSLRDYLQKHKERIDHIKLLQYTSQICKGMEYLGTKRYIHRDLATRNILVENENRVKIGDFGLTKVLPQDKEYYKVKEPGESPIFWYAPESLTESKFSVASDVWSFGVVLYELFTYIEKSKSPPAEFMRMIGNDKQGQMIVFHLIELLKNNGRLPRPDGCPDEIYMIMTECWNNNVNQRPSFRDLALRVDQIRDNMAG

Take `N#CCC1(n2cc(-c3ncnc4[nH]ccc34)cn2)CN(C2CCN(C(=O)c3ccc(-c4nc5ccccc5o4)c(F)c3)CC2)C1` [Example 137, {1-{1-[4-(1,3-benzoxazol-2-yl)-3-fluorobenzoyl]piperidin-4-yl}-3-[4-(7H-pyrrolo[2,3-d]pyrimidin-4-yl)-1H-pyrazol-1-yl]azetidin-3-y4}acetonitrile]: the figures for the IC50 in test [1] and in test [3] were 20 to 30 nM and over 100 nM, respectively. For the same compound, the “IC50 Ratio JAK2/JAK1” value in test [2] was 6.0.
In the same order, the values of `N#CCC1(n2cc(-c3ccnc4[nH]ccc34)cn2)CN(C2CCN(C(=O)C3CCC(F)(F)CC3)CC2)C1` [Example 302, {1-{1-[(4,4-fluorocyclohexyl)carbonyl]piperidin-4-yl}-3-[4-(1H-pyrrolo[2,3-b]pyridin-4-yl)-1H-pyrazol-1-yl]azetidin-3-yl}acetonitrile] are 20 to 30 nM, over 100 nM and 6.5.
In the case of `N#CCC1(n2cc(-c3ncnc4[nH]ccc34)cn2)CN(C2CCN(C(=O)c3ccc(C#N)cc3)CC2)C1` [Example 12, 4-[(4-{3-(cyanomethyl)-3-[4-(7H-pyrrolo[2,3-d]pyrimidin-4-yl)-1H-pyrazol-1-yl]azetidin-1-yl}piperidin-1-yl)carbonyl]benzonitrile], the IC50 is 20 to 30 nM in test [1] and over 100 nM in test [3]. Moreover, in test [2], the “IC50 Ratio JAK2/JAK1” value amounted to 5.2.
Turning to `N#CCC1(n2cc(-c3ncnc4[nH]ccc34)cn2)CN(C2CCN(Cc3cc4ccccc4nc3Cl)CC2)C1` [Example 214, {1-{1-[(2-chloroquinolin-3-yl)methyl]piperidin-4-yl}-3-[4-(7H-pyrrolo[2,3-d]pyrimidin-4-yl)-1H-pyrazol-1-yl]azetidin-3-yl}acetonitrile], the results for the IC50 in test [1] and in test [3] were 5 to 20 nM and 10 to 50 nM, respectively. The “IC50 Ratio JAK2/JAK1” value in test [2] came out at 2.5.
On to `CS(=O)(=O)N1CCC(N2CC(CC#N)(n3cc(-c4c(F)cnc5[nH]ccc45)cn3)C2)CC1` [Example 355, {3-[4-(5-Fluoro-1H-pyrrolo[2,3-b]pyridin-4-yl)-1H-pyrazol-1-yl]-1-[1-(methylsulfonyl)piperidin-4-yl]azetidin-3-yl}acetonitrile], for which the IC50 is at most 5 nM in test [1] and at most 10 nM in test [3]. In addition, the “IC50 Ratio JAK2/JAK1” value in test [2] worked out at 3.1.
In the case of `N#CCC1(n2cc(-c3ncnc4[nH]ccc34)cn2)CN(C2CCN(C(=O)Nc3c(Cl)cccc3Cl)CC2)C1` [Example 160, 4-{3-(cyanomethyl)-3-[4-(7H-pyrrolo[2,3-d]pyrimidin-4-yl)-1H-pyrazol-1-yl]azetidin-1-yl}-N-(2,6-dichlorophenyl)piperidine-1-carboxamide], the values for the IC50 in test [1] and in test [3] were at most 5 nM and 10 to 50 nM, respectively. The “IC50 Ratio JAK2/JAK1” value in test [2] was 12.1.
On to `N#CCC1(n2cc(-c3c(C#N)cnc4[nH]ccc34)cn2)CN(C2CCN(C(=O)c3ccc(C#N)c(F)c3)CC2)C1` [Example 334, 4-{1-[1-[1-(4-cyano-3-fluorobenzoyl)piperidin-4-yl]-3-(cyanomethyl)azetidin-3-yl]-1H-pyrazol-4-yl}-1H-pyrrolo[2,3-b]pyridine-5-carbonitrile], for which the IC50 was 20 to 30 nM in test [1] and over 100 nM in test [3]. For the same compound, the “IC50 Ratio JAK2/JAK1” value in test [2] is recorded as 4.3.
With `N#CCC1(n2cc(-c3ncnc4[nH]ccc34)cn2)CN(C2CC3CCC(C2)N3C(=O)c2cc(F)cc(C#N)c2)C1` (stereo not drawn) [Example 138, 3-[(3-{3-(Cyanomethyl)-3-[4-(7H-pyrrolo[2,3-d]pyrimidin-4-yl)-1H-pyrazol-1-yl]azetidin-1-yl}-8-azabicyclo[3.2.1]oct-8-yl)carbonyl]-5-fluorobenzonitrile], the values for the IC50 in test [1] and in test [3] were at most 5 nM and at most 10 nM, respectively. Further, the “IC50 Ratio JAK2/JAK1” value in test [2] came to 13.9.
In the case of `N#CCC1(n2cc(-c3c(F)cnc4[nH]ccc34)cn2)CN(C2CCN(C(=O)Nc3ccc(F)cc3C(F)(F)F)CC2)C1` [Example 328, 4-{3-(Cyanomethyl)-3-[4-(5-fluoro-1H-pyrrolo[2,3-b]pyridin-4-yl)-1H-pyrazol-1-yl]azetidin-1-yl}-N-[4-fluoro-2-(trifluoromethyl)phenyl]piperidine-1-carboxamide], the IC50 is at most 5 nM in test [1] and 10 to 50 nM in test [3]. Moreover, in test [2], the “IC50 Ratio JAK2/JAK1” value came out at 12.9.
Turning to `CN(C)c1ccc(C(=O)N2CCC(N3CC(CC#N)(n4cc(-c5ncnc6[nH]ccc56)cn4)C3)CC2)c(F)c1C#N` [Example 51, 3-[(4-{3-(cyanomethyl)-3-[4-(7H-pyrrolo[2,3-d]pyrimidin-4-yl)-1H-pyrazol-1-yl]azetidin-1-yl}piperidin-1yl)carbonyl]-6-(dimethylamino)-2-fluorobenzonitrile], the IC50 was at most 5 nM in test [1] and at most 10 nM in test [3]. Moreover, the “IC50 Ratio JAK2/JAK1” value in test [2] was found to be 6.3.
Turning to `N#CCC1(n2cc(-c3ncnc4[nH]ccc34)cn2)CN(C2CCN(C(=O)c3ccc(-c4cccc5ccncc45)c(F)c3)CC2)C1` [Example 131, {1-[1-(3-fluoro-4-isoquinolin-8-ylbenzoyl)piperidin-4-yl]-3-[4-(7H-pyrrolo[2,3-d]pyrimidin-4-yl)-1H-pyrazol-1-yl]azetidin-3-yl}acetonitrile], the IC50 in test [1] was at most 5 nM; in test [3], 10 to 50 nM. In addition, the “IC50 Ratio JAK2/JAK1” value in test [2] was 8.1.
In the same order, the values of `N#CCC1(n2cc(-c3ncnc4[nH]ccc34)cn2)CN(C2CCN(Cc3ccnc(C(F)(F)F)c3F)CC2)C1` [Example 231, {1-(1-{[3-fluoro-2-(trifluoromethyl)pyridin-4-yl]methyl}piperidin-4-yl)-3-[4-(7H-pyrrolo[2,3-d]pyrimidin-4-yl)-1H-pyrazol-1-yl]azetidin-3-yl}acetonitrile] are 5 to 20 nM, 50 to 100 nM and 5.1.
In the same order, the values of `N#CCC1(n2cc(-c3ncnc4[nH]ccc34)cn2)CN(C2CCN(C(=O)Cc3c(Cl)cccc3Cl)CC2)C1` [Example 112, {1-{1-[(2,6-dichlorophenyl)acetyl]piperidin-4-yl}-3-[4-(7H-pyrrolo[2,3-d]pyrimidin-4-yl)-1H-pyrazol-1-yl]azetidin-3-yl}acetonitrile] are 5 to 20 nM, 50 to 100 nM and 8.2.
Regarding `N#CCC1(n2cc(-c3ncnc4[nH]ccc34)cn2)CN(C2CCN(C(=O)c3cc4c(C(F)(F)F)cccc4s3)CC2)C1` [Example 93, [3-[4-(7H-pyrrolo[2,3-d]pyrimidin-4-yl)-1H-pyrazol-1-yl]-1-(1-{[4-(trifluoromethyl)-1-benzothien-2-yl]carbonyl}piperidin-4-yl)azetidin-3-yl]acetonitrile], the IC50 is at most 5 nM in test [1] and at most 10 nM in test [3]. In addition, the “IC50 Ratio JAK2/JAK1” value in test [2] is given as 1.5.
In the same order, the values of `N#CCC1(n2cc(-c3ccnc4[nH]ccc34)cn2)CN(C2CCN(C(=O)Nc3ccc(C#N)cc3F)CC2)C1` [Example 312, N-(4-cyano-2-fluorophenyl)-4-{3-(cyanomethyl)-3-[4-(1H-pyrrolo[2,3-b]pyridin-4-yl)-1H-pyrazol-1-yl]azetidin-1-yl}piperidine-1-carboxamide] are 5 to 20 nM, 50 to 100 nM and 5.3.
